Results on 3 molecules are retold here after patent US20170065663A1, “SUBSTANCE AND METHOD FOR TREATING INFLUENZA” (priority 2014, published 2017).

The target in one data set is T1, ECE-1 (Homo sapiens, UniProt P42892).
T1 sequence (P42892 1-770): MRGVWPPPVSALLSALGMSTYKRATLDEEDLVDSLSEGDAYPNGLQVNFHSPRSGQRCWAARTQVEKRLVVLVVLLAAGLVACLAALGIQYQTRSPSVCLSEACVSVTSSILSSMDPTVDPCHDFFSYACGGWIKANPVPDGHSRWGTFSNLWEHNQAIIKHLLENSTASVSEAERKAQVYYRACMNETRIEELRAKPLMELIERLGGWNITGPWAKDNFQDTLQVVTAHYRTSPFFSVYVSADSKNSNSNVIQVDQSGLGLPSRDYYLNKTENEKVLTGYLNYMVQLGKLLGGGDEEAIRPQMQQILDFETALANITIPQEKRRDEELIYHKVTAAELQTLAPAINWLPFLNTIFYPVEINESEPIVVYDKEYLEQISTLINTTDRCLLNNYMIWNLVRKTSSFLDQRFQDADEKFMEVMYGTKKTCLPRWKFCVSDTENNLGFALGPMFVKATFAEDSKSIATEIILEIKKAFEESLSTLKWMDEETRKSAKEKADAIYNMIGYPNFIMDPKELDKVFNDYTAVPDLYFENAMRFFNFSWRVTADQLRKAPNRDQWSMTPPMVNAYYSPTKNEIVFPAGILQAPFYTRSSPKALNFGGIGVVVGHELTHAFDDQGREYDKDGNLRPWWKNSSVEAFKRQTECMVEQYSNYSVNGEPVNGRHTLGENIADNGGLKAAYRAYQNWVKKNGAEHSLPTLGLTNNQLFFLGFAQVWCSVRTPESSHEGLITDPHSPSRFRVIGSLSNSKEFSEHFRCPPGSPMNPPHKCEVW
To be noted: cited from earlier work; for peptide present that is degraded: within 100 minutes of incubation.

A short description of data set [1]: Example I: degradation in IMDM media with 2.5% fetal bovine serum.
A short description of data set [2]: Example II: degradation of further Substance P analogs in IMDM media with 2.5% fetal bovine serum. The settings on record: 72 hours, present tense.
The subject of data set [3] is influenza virus subtypes H1N1, H3N2, H5N1 and H7N9. Details: species or system mice, cotton rats and ferrets. To be noted: in vivo.
For data set [4] the test system is unchanged. Details: species or system mice, cotton rats and ferrets. To be noted: in vivo. The source holds these as a separate data set.
Data set [5] has as its system Influenza/A/Wuhan/359/95. Details: species or system cotton rats (Sigmodon Hispidus). To be noted: rat, in vivo.
Data set [6] has as its system Influenza/A/Wuhan/359/95. Also noted: species or system cotton rats (Sigmodon Hispidus). The settings on record: rat, in vivo. The source holds these as a separate data set.

Read-outs that look alike come from different tables or passages of the source.

As a reminder, the amount remaining is what is left of the initial amount, in per cent. Lower therefore signals more turnover.

Consider `CC(C)C[C@H](NC(=O)CN(C)C(=O)[C@H](Cc1ccccc1)NC(=O)[C@H](Cc1ccccc1)NC(=O)[C@H](CCC(N)=O)NC(=O)[C@H](CCC(N)=O)NC(=O)[C@@H]1CCCN1C(=O)[C@H](CCCCN)NC(=O)[C@@H]1CCCN1C(=O)[C@@H](N)CCCNC(=N)N)C(=O)N[C@@H](CCS(C)(=O)=O)C(N)=O`, for which the “additional degradation after long incubation” value at ECE-1 (195 nM ECE-1, 1200 minutes post-incubation) is reported as “no additional degradation occurs”. On ECE-1 (195 nM ECE-1), the “time for 50% of the peptide present to become degraded” value is around 300 min and the “peptide present that is degraded” value was “about 20%”. The molecule further displayed a share remaining at 72 h in data set [1] of 59%.
On to `CSCC[C@H](NC(=O)[C@H](CC(C)C)NC(=O)CNC(=O)[C@H](Cc1ccccc1)NC(=O)[C@H](Cc1ccccc1)NC(=O)[C@H](CCC(N)=O)NC(=O)[C@H](CCC(N)=O)NC(=O)[C@@H]1CCCN1C(=O)[C@H](CCCCN)NC(=O)[C@@H]1CCCN1C(=O)[C@@H](N)CCCN=C(N)N)C(N)=O` [Substance P], for which the “peptide present that is degraded” value on ECE-1 (195 nM ECE-1) is recorded as around 100%. Further, the amount remaining at 72 h in data set [1] came out at 24%. In addition, the initial concentration recovered in data set [2] stood at 24%.
With `CCOC(=O)C1=C[C@@H](OC(CC)CC)[C@H](NC(C)=O)[C@@H](N)C1` [Tamiflu®, oseltamivir], in data set [3], the “flu-related symptoms compared with placebo” value is reported as “fewer flu-related symptoms” and the “symptom reduction compared with subjects treated with an enumerated Substance P analog” value is recorded as “do not exhibit the symptom reduction produced in the subjects treated with one of the enumerated Substance P analogs”. In addition, in data set [4], the “flu-related symptoms compared with placebo” value is given as “fewer flu-related symptoms”. Also, the “body weight change following infection” value in the data set on Influenza/A/Wuhan/359/95 [5] was “greater loss in body weight than mock-treated/infected animals”. Moreover, in the data set with Influenza/A/Wuhan/359/95 [6], the body weight loss result is on record as “recover from weight-loss quicker than vehicle-treated controls”; the “pulmonary inflammation (alveolitis and interstitial inflammation)” value is “did not appear to affect pulmonary inflammation”.
